Measured values taken from patent US10561704B2, “Compositions and methods for treating neuropsychiatric disorders using an endothelin-B receptor agonist” (MIDWESTERN UNIVERSITY, priority 2013, dated 2020).
Marks after values point to notes of the source that are not given here. *1 amine or outer side, *2 acyl side, *3 side chain or, on linkers, in order; H or OH if unused. Where no end group is shown, it is not given here. Suc = O=C(CCC(=O)[*:2])[*:1]

What was measured:
[1] = system: Aβ induced oxidative stress in the rat brain; assay: Oxidative stress markers (MDA, GSH, SOD) in brains of Aβ treated non-diabetic and diabetic rats; assay type: in vivo, Sprague-Dawley rats; details: for Brain malondialdehyde (MDA) level: IRL-1620 3 μg i.c.v. daily 14 days
Experimental: Male Sprague-Dawley rats (Harlan, Indianapolis, Ind.) weighing 280-310 g were allowed to acclimate for at least 4 days before use. Animals were housed in a room with controlled temperature (23±1° C.), humidity (50±10%), and light (6:00 A.M. to 6:00 P.M.). Food and water were available continuously. Animal care and use for experimental procedures were approved by the Institutional Animal Care and Use Committee (IACUC) of Midwestern University. All anesthetic and surgical procedures were in compliance with the guidelines established by the IACUC of Midwestern University.
Amyloid-β (1-40) (Tocris Bioscience, Ellisville, Mo., USA), IRL-1620 [N-Succinyl-[Glu9, Ala11,15] endothelin 1] (American Peptide Co, Inc., Sunnyvale, Calif., USA) and BQ788 (American Peptide Co, Inc., Sunnyvale, Calif., USA) were dissolved in sterile saline and all the solutions were freshly prepared before injections. Ketamine (Butler Animal Health Supply, Dublin, Ohio, USA) was administered at a dose of 100 mg/kg, intraperitoneally (i.p.), and xylazine (Lloyd Laboratories, Shenandoah, Iowa, USA) was administered at a dose of 10 mg/kg, i.p. Rats were anesthetized with ketamine (100 mg/kg) and xylazine (10 mg/kg) and a lateral cerebral ventricle was cannulated by placing the rat in a stereotaxic (David Kopf Instruments, Tujunga, Calif., USA) instrument and fixing the cannula (coordinates: 1.0 mm lateral, 1.5 mm caudal to bregma and 4.0 mm deep from the bone). Cannula (Plastics One, Roanoke, Va., USA) was anchored with dental acrylic to three screws placed in the skull. The animals were allowed to recover from surgery for at least seven days. After 7 days, rats were treated with vehicle, Aβ (1-40), ETB receptor agonist and/or antagonist in the lateral cerebral ventricles using the implanted cannula. Vehicle, Aβ or ETB receptor agonist and antagonist were injected in a volume of 5 μl over a period of 5 minutes. Aβ (1-40) was used because it is highly soluble compared to Aβ (1-42) and induces endothelial dysfunction of both cerebral and systemic blood vessels in addition to memory deficit (Nitta et al., 1994; Niwa et al., 2000; Smith et al., 2004; Weller et al., 1998). Agents were delivered using 10 μl Hamilton syringe and agent treatments were carried out individually using separate 10 μl syringe. IRL-1620 was administered 1 hour after Aβ injection whereas BQ788 was administered 15 minutes prior to IRL-1620 injection. At the end of the experiment, placement of cannula was confirmed by injecting methylene blue dye (5 μl) and observing the site and extent of staining. All experiments were performed on day 15 (Briyal et al., 2011). Water maze testing was performed from day 15 to day 19 after which animals were euthanized. Animals used for oxidative stress measurements were euthanized on day 15 without being subjected to any behavioral testing. Diabetes mellitus type 2 was induced in rats belonging to the diabetic group by administering freshly prepared streptozotocin at the dose of 45 mg/kg, i.p. Streptozotocin was dissolved in 0.01 M sodium citrate buffer of pH 4.3. On day 3, blood glucose was obtained from the rat-tail and tested for hyperglycemia using the SureStep Complete Blood Glucose monitor kit. Rats with blood glucose levels above 11.1 mM were considered diabetic. Diabetic and non-diabetic animals were randomly divided into five groups (6 rats per group) (i) Sham, (ii) Aβ+Vehicle, (iii) Aβ+IRL-1620, (iv) Aβ+BQ788 (v) Aβ+BQ788+IRL-1620. Aβ (1-40) was administered intracerebroventricularly (i.c.v.) (20 μg in 3 equally divided doses i.e. 6.67 μg were injected 3 times for a total of 20 μg dose) on day 1, 7, and 14. Specific ETB receptor agonist, IRL-1620 (3 μg) and specific ETB receptor antagonist, BQ788 (10 μg) were administered i.c.v. daily for 14 days starting from day 1 of Aβ injection. The doses of IRL-1620 and BQ788 were selected on the basis of previous studies conducted in our laboratory (Leonard et al., 2011). […]

[2] = system: middle cerebral artery occluded rats; assay: Neurological deficit and motor function post middle cerebral artery occlusion; assay type: in vivo; details: for Distance Traveled (cm) / Foot Fault Error (%) / Grip Test (6 point scale) / Neurological Evaluation (6 point scale) / Rota Rod Duration / Vertical Breaks: MCAO rats
Experimental: Effect of IRL-1620 on neurological deficit following focal cerebral ischemia: In a preliminary study, the effect of selectively activating ETB receptors by IRL-1620 following permanent middle cerebral artery occlusion in rats was determined.

[3] = system: middle cerebral artery occluded rats; assay: Infarct volume and edema 7 days post middle cerebral artery occlusion; assay type: in vivo
Experimental: FIG. 12: Two mm coronal sections of brains stained with TTC to visualize the infarct area 7 days post middle cerebral artery occlusion (red indicates normal tissue and white indicates infarct tissue). Representative slices from groups are shown. IRL-1620 (5 μg/kg, IV) or isotonic saline (1 ml/kg, IV) was injected at 2, 4, and 6 hr post MCAO. BQ-788 (1 mg/kg, IV) was administered once 15 min prior to the first injection of IRL-1620 or vehicle.

[4] = system: normal rats; details: intravenous; cited from earlier work
[5] = Aβ treated diabetic rats, day 15
[6] = Aβ treated non-diabetic rats, day 15

## Suc-Asp-Glu-Glu-Ala-Val-Tyr-Phe-Ala-His-Leu-Asp-Ile-Ile-Trp (Suc-DEEAVYFAHLDIIW) [IRL-1620]
[1]; [5]
  Brain malondialdehyde (MDA) level: 315.09±5.25 nmol/g wet tissue
  Brain reduced glutathione (GSH) level: 166.42±6.63 μg/g wet tissue
  Brain superoxide dismutase (SOD) level: 21.4±1.65 U/mg protein
[1]; [6]
  Brain malondialdehyde (MDA) level: 278.47±8.55 nmol/g wet tissue
  Brain reduced glutathione (GSH) level: 192.74±6.26 μg/g wet tissue
  Brain superoxide dismutase (SOD) level: 22.26±1.16 U/mg protein
[2]; Baseline
  Distance Traveled (cm): 5073 ± 334 cm
  Foot Fault Error (%): 4.05 ± 1.31%
  Grip Test (6 point scale): 3.86 ± 0.46
  Neurological Evaluation (6 point scale): 0 ± 0
  Rota Rod Duration: 113.29 ± 8.34 s
  Vertical Breaks: 61.50 ± 4.94
[2]; Day 1
  Distance Traveled (cm): 1611 ± 325 cm
  Foot Fault Error (%): 18.85 ± 6.48 %
  Grip Test (6 point scale): 2.71 ± 0.52
  Neurological Evaluation (6 point scale): 1.29 ± 0.36
  Rota Rod Duration: 78.71 ± 22.59 s
  Vertical Breaks: 12.75 ± 4.76
[2]; Day 4
  Distance Traveled (cm): 2898 ± 451 cm
  Foot Fault Error (%): 14.00 ± 3.66 %
  Grip Test (6 point scale): 2.33 ± 0.58
  Neurological Evaluation (6 point scale): 0.67 ± 0.22
  Rota Rod Duration: 97.33 ± 2.08 s
  Vertical Breaks: 26.33 ± 2.08
[2]; Day 7
  Distance Traveled (cm): 3472 ± 732 cm
  Foot Fault Error (%): 8.28 ± 1.09 %
  Grip Test (6 point scale): 3.33 ± 0.22
  Neurological Evaluation (6 point scale): 0.67 ± 0.22
  Rota Rod Duration: 123.67 ± 7.28 s
  Vertical Breaks: 34.33 ± 3.78
[2]; preliminary study, 24 hours after permanent MCAO, vs vehicle-treated
  Neurological and motor function tests: significant improvement
[3]; MCAO 7 days
  Edema: infarcted hemisphere larger than non-infarcted hemisphere: 1.51±1.81%
[3]; MCAO for 7 days, IRL-1620 5 μg/kg IV at 2, 4, 6 hr post MCAO
  Infarct volume: 54.06±14.12 mm^3
[3]; chronic study, 1 week (Leonard et al., 2012)
  Reduction of infarct volume: 69.49%
[4]
  Cerebral blood flow (CBF): significant elevation

## CCCC[C@@H](NC(=O)[C@@H](Cc1cn(C(=O)OC)c2ccccc12)NC(=O)[C@H](CC(C)(C)C)NC(=O)N1[C@H](C)CCC[C@@H]1C)C(=O)O [BQ788, reference compound]
[1]; Aβ treated diabetic rats, pretreated with BQ788 prior to IRL-1620
  Brain superoxide dismutase (SOD) level: 16.52±0.45 U/mg protein
[1]; Aβ treated non-diabetic rats, pretreated with BQ788 prior to IRL-1620
  Brain superoxide dismutase (SOD) level: 15.32±0.44 U/mg protein
[1]; Aβ treated rats, BQ788 administered prior to IRL-1620
  IRL-1620 induced change in MDA levels: blocked
[1]; Aβ treated rats, pretreatment with BQ788 before IRL-1620, diabetic status not stated
  Brain reduced glutathione (GSH) level: 81.2±5.49 μg/g wet tissue
[2]; Baseline
  Distance Traveled (cm): 5141 ± 285 cm
  Foot Fault Error (%): 5.96 ± 1.75%
  Grip Test (6 point scale): 3.33 ± 0.33
  Neurological Evaluation (6 point scale): 0 ± 0
  Rota Rod Duration: 102.00 ± 5.14 s
  Vertical Breaks: 55.17 ± 3.74
[2]; Day 1
  Distance Traveled (cm): 1168 ± 417 cm
  Foot Fault Error (%): 52.12 ± 11.93*^@ %
  Grip Test (6 point scale): 0.67 ± 0.33*^@
  Neurological Evaluation (6 point scale): 3.00 ± 0.58*^@
  Rota Rod Duration: 37.83 ± 20.87 s
  Vertical Breaks: 5.33 ± 2.47
[2]; Day 4
  Distance Traveled (cm): 1246 ± 410 cm
  Foot Fault Error (%): 68.89 ± 12.27*^@ %
  Grip Test (6 point scale): 0.33 ± 0.24
  Neurological Evaluation (6 point scale): 3.33 ± 0.62*^@
  Rota Rod Duration: 37.67 ± 14.92 s
  Vertical Breaks: 4.33 ± 1.52
[2]; Day 7
  Distance Traveled (cm): 2280 ± 836 cm
  Foot Fault Error (%): 75.00 ± 17.67*^@ %
  Grip Test (6 point scale): 1.67 ± 0.62
  Neurological Evaluation (6 point scale): 3.00 ± 0.82*^@
  Rota Rod Duration: 49.67 ± 17.56 s
  Vertical Breaks: 11.00 ± 3.97
[3]; MCAO 7 days, BQ-788 followed by IRL-1620
  Edema: 17.97±5.17%
[3]; MCAO 7 days, BQ-788 followed by vehicle
  Edema: 17.02±3.17%
[3]; MCAO 7 days, BQ-788 given with either vehicle or IRL-1620
  Infarct volume: did not reduce
